According to US20240036032A1, “PREDICTIVE IN VITRO ASSAY MIMICKING IN VIVO PHARMACOLOGY” (MIMI-Q GMBH, priority 2020, published 2024):
Read-outs that look alike come from different tables or passages of the source. Marks after values point to notes of the source that are not given here.

What was measured:
colon cancer organoids = test: Half growth inhibitory concentration (GI50): serial dilutions, 72 hours, MTS assay; assay type: cell-based, human (patient)
Experimental: A patient was diagnosed with colon cancer and mFOLFOX6 chemotherapeutic treatment was prescribed. To obtain primary organoid culture of colon cancer cells a sample of resected lung metastasis was used. Tissue was cut into small fragments and placed immediately into MACS tissue storage solution (Miltenyi Biotec, Germany) and stored for no more than 24 hours at 4° C. Then, the tissue fragments were transferred to a tube for tissue homogenization gentleMACS C Tube (Miltenyi Biotec, Germany) and enzyme cocktail from Tumor Dissociation Kit human (Miltenyi Biotec, Germany) consisting of 2.2 ml of DMEM/F-12 culture medium (Thermo Fisher Scientific, USA), 100 μl of Enzyme H solution (Miltenyi Biotec, Germany), 50 μl of Enzyme R solution (Miltenyi Biotec, Germany) and 12.5 μl of Enzyme A solution (Miltenyi Biotec, Germany) was added to the same tube. Then the tube was tightly closed with a lid and placed in gentleMACS Octo Dissociator (Miltenyi Biotec, Germany). For tissue dissociation, the “37C_h_TDK_3” program was used. […]
Organoids were diluted in Matrigel Growth Factor Reduced (GFR) Basement Membrane Matrix (Corning, USA) and seeded into 96-well plate (TPP, Switzerland). […] Relative number of cells was measured with MTS assay CellTiter 96 Aqueous One Solution Cell Proliferation Assay kit (Promega, USA) according to the manufacturer's instructions (FIG. 2). […]

[1] = cited from earlier work
[2] = Clinical pharmacokinetics parameters of mFOLFOX6 active substances from published data; assay type: in vivo, Humans; conditions: 5-fluorouracil bolus, sequence number 2, calculated to a dose of 400 mg/m^2 assuming linear kinetics
Experimental: Pharmacokinetics parameters for all substances presented in Table 3 were identified based on published data. Substances of administration 1 (Oxaliplatin) and 2 (5-Fluorouracil) present simultaneously in the body, so time point of addition of 2 (5-Fluorouracil) was selected in a timeframe of selected incubation time for 1 (Oxaliplatin). Substances of administration 2 (5-Fluorouracil) and 3 (5-Fluorouracil) also present simultaneously in the body, so time point of addition of 3 (5-Fluorouracil) was selected in a timeframe of selected duration of exposure for 2 (5-Fluorouracil).

[3] = NCI Database; cited from earlier work
[4] = tested on: chemo-resistant metastatic CRC; conditions: absence of genetic selection; cited from earlier work
[5] = 5-fluorouracil continuous infusion, sequence number 3
[6] = oxaliplatin infusion, mFOLFOX6, sequence number 1

## O=c1[nH]cc(F)c(=O)[nH]1 [5-Fluorouracil, 5-fluorouracil]
Colon cancer organoids; Example 3, FIG. 3b
  sensitivity of organoids judged from GI50: sensitive
Colon cancer organoids; Homo sapiens, Example 3, organoids from resected lung metastasis, 72 hours incubation
  GI50: 2260 nM
[1]; [5]
  Area under curve: 156.4 µM
  Cmax: 5.5 µM
[2]
  Area under curve: 82.1* μM·
[2]; human, in vivo, intravenous, 400 mg/m2
  Cmax: 273 µM

## Nc1nc2c(c(=O)[nH]1)N(C=O)C(CNc1ccc(C(=O)N[C@@H](CCC(=O)O)C(=O)O)cc1)CN2 (stereo partly shown) [Leucovorin, Leucovorin Calcium (Folinic Acid)]
[3]
  direct cytotoxic or cytostatic effect: does not possess direct cytotoxic or cytostatic effect

## O=C1[O][Pt]2([NH][C@@H]3CCCC[C@H]3[NH]2)[O]C1=O [Oxaliplatin]
[1]; [6]
  Area under curve: 6.8 µM
  Cmax: 3.6 µM

## panitumumab: anti-EGFR therapy drug
[4]
  patients responding to anti-EGFR therapy: 10%
